Data: patent US20100144854A1 (priority 2007, published 2010)

Tests used:
[1] = system: Primary cancer of the liver; test: Example 5: patient with primary liver cancer treated with rhodamine 6G; format: in vivo, human; parameters: Nuclear segments / Erythrocytes / Hemoglobin / Thrombocytes / Leukocytes / Amylase / Chlorine / Serum iron / Cholesterol / Total bilirubin / Bilirubin (line r8, above 'direct'): unit not given here; settings: for Creatinine / Cholesterol / Total bilirubin / Potassium / ALT / AST / Bilirubin (line r8, above 'direct') / Serum iron / Total protein / Amylase / Chlorine / LDG / Bilirubin (line r10, above 'indirect') / direct (line r9) / indirect (line r11) / Phosphatase, alk. / Erythrocytes / Hemoglobin / Leukocytes / Thrombocytes / Basophils / Eosinophils / Nuclear rods / ESR / Monocytes / Lymphocytes / Nuclear segments: Example 5, Patient L; for Cholesterol: normal 1.66-8.3; for Total bilirubin: normal 2.90-6.54; for Potassium: normal 3.5-6.0; for ALT / AST: normal 5-40; for Bilirubin (line r8, above 'direct'): normal 8.5-20.5; for Serum iron: normal 8.8-27.0; for Total protein: normal 65.0-85.0; for Amylase: normal 95-110.0; for Chlorine: normal 135.0-; for LDG: normal 225-450; for Bilirubin (line r10, above 'indirect') / direct (line r9): normal up to 25%; for indirect (line r11): normal up to 100; for Phosphatase, alk.: normal up to 104; for Basophils: normal 0-1%; for Eosinophils: normal 0-5; for Nuclear rods: normal 1-6%; for ESR: normal 1-15 mm/hr; for Monocytes: normal 2-9%; for Lymphocytes: normal 18-40%; for Nuclear segments: normal 45-70
Procedure: Patient […]. Diagnosis: Primary cancer of the liver. One and a half years before, resection of part of the right hepatic lobe on account of liver cell carcinoma. Patient complained of pain in the right hypochondrium, dyspnea, ascites, intermittent retention of stools. Patient's condition moderately severe, loss of appetite, jaundice. […] The patient underwent bougienation of the umbilical vein. […] Subsequent procedures were carried out in exactly the same way twice a week. Only the preparation was administered intravenously. The course of treatment lasted 3 months. During the treatment the tumor in the affected region decreased in size to 0.5×0.7 cm. After 4 months a connective tissue scar of size 0.2×0.3 cm remained at the site of the tumor in the liver.

[2] = system: primary generalized amyloidosis; test: Example 10: patient with primary generalized amyloidosis treated with rhodamine 6G; format: in vivo, human; settings: Patient T, 67
Source text: Patient T. Diagnosis: Ischemic heart disease: Atherosclerosis, cardiosclerosis, atrial fibrillation. Amyloidosis? On account of deterioration in the patient's condition (increased frequency of dyspnea) the patient was hospitalised. On admission the patient's overall condition was fairly serious. Skin and visible mucous membranes normal colour, moderately cyanosed lips. Heart sounds—muffled, arrhythmia—atrial fibrillation with frequency of ventricular contractions 110 beats/min (pulse deficiency 12), blood pressure 100/60 mm Hg. In left lung, dull percussion sound below the middle of the shoulder blade; no breathing detected above this region. Individual moist rales heard to the right in the projection of the lower lobe. Diseased liver, lower edge extending 4 cm below the level of the costal margin. Edema of the legs as far as middle third of femur and anasarca were diagnosed.
Low voltage waves recorded on ECG, taxistological shape of atrial fibrillation, QS in leads V1-V4. […] Disturbed diastolic relaxation of myocardium of left ventricle was noted. […] In the biochemical blood analysis the level of total protein was reduced (down to 50 g/l), while the levels of urea (to 9.66 mmol/l) and creatinine (to […]) were both raised. […] Ultrasound investigation of organs of the abdominal cavity: enlarged liver (right lobe—16.9 cm), echogenicity reduced, and irregular structure; portal vein−15 mm. Gall bladder: 52×22 mm, wall up to 4 mm, unobstructed lumen. Pancreas: uniform, echogenicity raised, focalized diffuse changes. […] Calyculate-pelvic system of both kidneys not enlarged. Fogging of the lung pattern and diffuse changes were observed on an anterioposterior chest X-ray. A needle liver biopsy was performed in order to exclude amyloidosis. Signs of primary amyloidosis were detected. […] 5% suppositories in the rectum at night. Treatment according to this regimen was continued for 2 months. […] Intravenous administration twice a week. The course of treatment lasted 2 months. […] The liver and kidneys were normal size on an ultrasound scan.

Substance: 9-(2-ethoxycarbonyl)phenyl)-3,6-bis(ethylamino)2,7-dimethylxanthyl chloride [rhodamine 6G]
- Creatinine ([1]; 04 Feb. 2005): 79 µM
- Cholesterol ([1]; 04 Feb. 2005): 5.75
- Total bilirubin ([1]; 04 Feb. 2005): 8.4
- Potassium ([1]; 04 Feb. 2005): 2.28
- ALT ([1]; 04 Feb. 2005): 154.2 el
- AST ([1]; 04 Feb. 2005): 103.8 el
- Bilirubin (line r8, above 'direct') ([1]; 04 Feb. 2005): 3.3
- Serum iron ([1]; 04 Feb. 2005): 94.4
- Total protein ([1]; 04 Feb. 2005): 78
- Amylase ([1]; 04 Feb. 2005): 102.8
- Chlorine ([1]; 04 Feb. 2005): 114.31
- LDG ([1]; 04 Feb. 2005): 332 el
- Bilirubin (line r10, above 'indirect') ([1]; 04 Feb. 2005): 84%
- direct (line r9) ([1]; 04 Feb. 2005): 5.1%
- indirect (line r11) ([1]; 04 Feb. 2005): 89 el
- Phosphatase, alk. ([1]; 04 Feb. 2005): 4.55 el
- Creatinine ([1]; 07 Apr. 2005): 67 µM
- Cholesterol ([1]; 07 Apr. 2005): 7.03
- Total bilirubin ([1]; 07 Apr. 2005): 8.0
- Potassium ([1]; 07 Apr. 2005): 2.15
- ALT ([1]; 07 Apr. 2005): 40 el
- AST ([1]; 07 Apr. 2005): 30.4 el
- Bilirubin (line r8, above 'direct') ([1]; 07 Apr. 2005): 2.0
- Serum iron ([1]; 07 Apr. 2005): 43.7
- Total protein ([1]; 07 Apr. 2005): 64.34
- Amylase ([1]; 07 Apr. 2005): 110.0
- Chlorine ([1]; 07 Apr. 2005): 134.2
- LDG ([1]; 07 Apr. 2005): 362 el
- Bilirubin (line r10, above 'indirect') ([1]; 07 Apr. 2005): 90%
- direct (line r9) ([1]; 07 Apr. 2005): 6.0%
- indirect (line r11) ([1]; 07 Apr. 2005): 78.0 el
- Phosphatase, alk. ([1]; 07 Apr. 2005): 6.7 el
- Creatinine ([1]; 10 Nov. 2004): 98 µM
- Cholesterol ([1]; 10 Nov. 2004): 6.21
- Total bilirubin ([1]; 10 Nov. 2004): 11.0
- Potassium ([1]; 10 Nov. 2004): 2.72
- ALT ([1]; 10 Nov. 2004): 665.8 el
- AST ([1]; 10 Nov. 2004): 554.5 el
- Bilirubin (line r8, above 'direct') ([1]; 10 Nov. 2004): 3.0
- Serum iron ([1]; 10 Nov. 2004): 190.4
- Total protein ([1]; 10 Nov. 2004): 43.43
- Amylase ([1]; 10 Nov. 2004): 114.0
- Chlorine ([1]; 10 Nov. 2004): 114.20
- LDG ([1]; 10 Nov. 2004): 879 el
- Bilirubin (line r10, above 'indirect') ([1]; 10 Nov. 2004): 82%
- direct (line r9) ([1]; 10 Nov. 2004): 8.0%
- indirect (line r11) ([1]; 10 Nov. 2004): 107.2 el
- Phosphatase, alk. ([1]; 10 Nov. 2004): 5.71 el
- Erythrocytes ([1]; 12 Nov. 2004): 3.22
- Hemoglobin ([1]; 12 Nov. 2004): 74
- Leukocytes ([1]; 12 Nov. 2004): 7.2
- Thrombocytes ([1]; 12 Nov. 2004): 315
- Basophils ([1]; 12 Nov. 2004): 1%
- Eosinophils ([1]; 12 Nov. 2004): 1
- Nuclear rods ([1]; 12 Nov. 2004): 1%
- ESR ([1]; 12 Nov. 2004): 3.5 mm/hr
- Monocytes ([1]; 12 Nov. 2004): 15%
- Lymphocytes ([1]; 12 Nov. 2004): 9%
- Nuclear segments ([1]; 12 Nov. 2004): 21
- Erythrocytes ([1]; 14 Feb. 2005): 4.37
- Hemoglobin ([1]; 14 Feb. 2005): 117
- Leukocytes ([1]; 14 Feb. 2005): 5.8
- Thrombocytes ([1]; 14 Feb. 2005): 286
- Eosinophils ([1]; 14 Feb. 2005): 2
- Monocytes ([1]; 14 Feb. 2005): 4%
- Lymphocytes ([1]; 14 Feb. 2005): 23%
- Nuclear segments ([1]; 14 Feb. 2005): 63
- Erythrocytes ([1]; 17 Apr. 2006): 4.67
- Hemoglobin ([1]; 17 Apr. 2006): 123
- Leukocytes ([1]; 17 Apr. 2006): 6.7
- Thrombocytes ([1]; 17 Apr. 2006): 310
- Basophils ([1]; 17 Apr. 2006): 1%
- Eosinophils ([1]; 17 Apr. 2006): 1
- ESR ([1]; 17 Apr. 2006): 8.5 mm/hr
- Monocytes ([1]; 17 Apr. 2006): 9%
- Lymphocytes ([1]; 17 Apr. 2006): 37%
- Nuclear segments ([1]; 17 Apr. 2006): 65
- Erythrocytes ([1]; 19 Jan. 2005): 3.60
- Hemoglobin ([1]; 19 Jan. 2005): 80
- Leukocytes ([1]; 19 Jan. 2005): 7.8
- Thrombocytes ([1]; 19 Jan. 2005): 362
- Eosinophils ([1]; 19 Jan. 2005): 2
- Nuclear rods ([1]; 19 Jan. 2005): 1%
- Monocytes ([1]; 19 Jan. 2005): 4.3%
- Lymphocytes ([1]; 19 Jan. 2005): 16%
- Nuclear segments ([1]; 19 Jan. 2005): 44
- Creatinine ([1]; 20 Dec. 2005): 83 µM
- Cholesterol ([1]; 20 Dec. 2005): 5.62
- Total bilirubin ([1]; 20 Dec. 2005): 24.2
- Potassium ([1]; 20 Dec. 2005): 2.32
- ALT ([1]; 20 Dec. 2005): 426 el
- AST ([1]; 20 Dec. 2005): 432.9 el
- Bilirubin (line r8, above 'direct') ([1]; 20 Dec. 2005): 22.3
- Serum iron ([1]; 20 Dec. 2005): 224.7
- Total protein ([1]; 20 Dec. 2005): 49.90
- Amylase ([1]; 20 Dec. 2005): 140
- Chlorine ([1]; 20 Dec. 2005): 115.3
- LDG ([1]; 20 Dec. 2005): 556 el
- Bilirubin (line r10, above 'indirect') ([1]; 20 Dec. 2005): 96%
- direct (line r9) ([1]; 20 Dec. 2005): 11.9%
- indirect (line r11) ([1]; 20 Dec. 2005): 102 el
- Phosphatase, alk. ([1]; 20 Dec. 2005): 5.48 el
- patient's complaints ([1]; Patient L, 64, at the present time): no complaints
- blood analyses ([1]; Patient L, 64, during treatment): positive change
- condition of the patient ([2]; 5 g in 250 ml water three times a day, 5% suppositories, 2 months): gradually improved
- size of the heart, echocardiogram ([2]; after oral/rectal 2 months and 2 g i.v. twice a week 2 months): reduced
- blood and urine analyses ([2]; after treatment): in the normal range
- dilation of the left and right atria, echocardiogram ([2]; after treatment): significantly reduced
- fibrillation on the EKG ([2]; after treatment): no fibrillation
- liver and kidneys, ultrasound scan ([2]; after treatment): normal size
- patient's complaints ([2]; after treatment): no complaints
- voltage waves on the EKG ([2]; after treatment): in the normal range
